Our source for the IC50 values is patent publication US12172995B2, “Substituted indole and indazole compounds” (BRISTOL-MYERS SQUIBB COMPANY, priority 2018, dated 2024).

Holding throughout (type): cell-based
One assay has as its target T1, human TLR7 (Homo sapiens, UniProt Q9NYK1).
T1 construct: host or cells: HEK-Blue cells
T1 sequence (Q9NYK1 27-1049): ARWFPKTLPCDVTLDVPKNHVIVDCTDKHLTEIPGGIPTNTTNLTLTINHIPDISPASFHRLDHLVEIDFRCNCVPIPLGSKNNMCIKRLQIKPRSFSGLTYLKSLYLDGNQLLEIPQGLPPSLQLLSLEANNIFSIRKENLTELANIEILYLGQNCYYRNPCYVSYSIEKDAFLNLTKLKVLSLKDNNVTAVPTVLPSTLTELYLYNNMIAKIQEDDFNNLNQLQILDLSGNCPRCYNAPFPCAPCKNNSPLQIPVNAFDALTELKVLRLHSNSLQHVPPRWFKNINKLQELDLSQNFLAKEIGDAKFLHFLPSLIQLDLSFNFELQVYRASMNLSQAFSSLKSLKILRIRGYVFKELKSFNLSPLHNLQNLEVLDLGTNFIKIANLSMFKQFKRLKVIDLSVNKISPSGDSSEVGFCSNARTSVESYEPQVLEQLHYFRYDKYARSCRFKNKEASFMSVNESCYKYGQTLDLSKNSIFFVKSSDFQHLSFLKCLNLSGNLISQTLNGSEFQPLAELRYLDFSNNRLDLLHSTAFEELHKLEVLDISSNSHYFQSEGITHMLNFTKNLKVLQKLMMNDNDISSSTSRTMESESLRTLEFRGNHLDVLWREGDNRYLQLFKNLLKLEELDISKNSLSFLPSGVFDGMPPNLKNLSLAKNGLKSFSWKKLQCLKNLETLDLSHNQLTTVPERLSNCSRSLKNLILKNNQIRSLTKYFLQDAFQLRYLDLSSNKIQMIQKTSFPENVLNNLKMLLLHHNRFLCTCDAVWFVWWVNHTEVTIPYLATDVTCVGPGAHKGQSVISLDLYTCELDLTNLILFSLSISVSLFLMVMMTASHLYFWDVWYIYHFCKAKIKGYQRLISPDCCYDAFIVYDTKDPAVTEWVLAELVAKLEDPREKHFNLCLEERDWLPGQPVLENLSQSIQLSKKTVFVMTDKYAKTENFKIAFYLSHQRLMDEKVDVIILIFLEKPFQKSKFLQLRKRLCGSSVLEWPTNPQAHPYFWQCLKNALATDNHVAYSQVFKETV
The experiment in a line: TLR7 inhibition reporter assay (HEK-Blue SEAP). As to conditions: HEK-Blue cells overexpressing human TLR7, stimulated with gardiquimod 7.5 μM, 22 hour incubation. On the procedure:
(§1) TLR7/8/9 Inhibition Reporter Assays
(§2) HEK-Blue™-cells (Invivogen) overexpressing human TLR7, TLR8 or TLR9 receptors were used for screening inhibitors of these receptors using an inducible SEAP (secreted embryonic alkaline phosphatase) reporter gene under the control of the IFN-β minimal promoter fused to five NF-κB and AP-1-binding sites. Briefly, cells are seeded into Greiner 384 well plates (15000 cells per well for TLR7, 20,000 for TLR8 and 25,000 for TLR9) and then treated with test compounds in DMSO to yield a final dose response concentration range of 0.05 nM to 50 μM. After a 30 minute compound pre-treatment at room temperature, the cells are then stimulated with a TLR7 ligand (gardiquimod at a final concentration of 7.5 μM), TLR8 ligand (R848 at a final concentration of 15.9 μM) or TLR9 ligand (ODN2006 at a final concentration of 5 nM) to activate NF-κB and AP-1 which induce the production of SEAP. After a 22 hour incubation at 37° C., 5% CO2, SEAP levels are determined with the addition of HEK-Blue™ Detection reagent (Invivogen), a cell culture medium that allows for detection of SEAP, according to manufacturer's specifications. The percent inhibition is determined as the % reduction in the HEK-Blue signal present in wells treated with agonist plus DMSO alone compared to wells treated with a known inhibitor.
(In general: In a reporter assay the amount or activity of a reporter protein is the signal.)

The target of another assay is T2, human TLR8 (Homo sapiens, UniProt Q9NR97).
T2 construct: host or cells: HEK-Blue cells
T2 sequence (Q9NR97 27-1041): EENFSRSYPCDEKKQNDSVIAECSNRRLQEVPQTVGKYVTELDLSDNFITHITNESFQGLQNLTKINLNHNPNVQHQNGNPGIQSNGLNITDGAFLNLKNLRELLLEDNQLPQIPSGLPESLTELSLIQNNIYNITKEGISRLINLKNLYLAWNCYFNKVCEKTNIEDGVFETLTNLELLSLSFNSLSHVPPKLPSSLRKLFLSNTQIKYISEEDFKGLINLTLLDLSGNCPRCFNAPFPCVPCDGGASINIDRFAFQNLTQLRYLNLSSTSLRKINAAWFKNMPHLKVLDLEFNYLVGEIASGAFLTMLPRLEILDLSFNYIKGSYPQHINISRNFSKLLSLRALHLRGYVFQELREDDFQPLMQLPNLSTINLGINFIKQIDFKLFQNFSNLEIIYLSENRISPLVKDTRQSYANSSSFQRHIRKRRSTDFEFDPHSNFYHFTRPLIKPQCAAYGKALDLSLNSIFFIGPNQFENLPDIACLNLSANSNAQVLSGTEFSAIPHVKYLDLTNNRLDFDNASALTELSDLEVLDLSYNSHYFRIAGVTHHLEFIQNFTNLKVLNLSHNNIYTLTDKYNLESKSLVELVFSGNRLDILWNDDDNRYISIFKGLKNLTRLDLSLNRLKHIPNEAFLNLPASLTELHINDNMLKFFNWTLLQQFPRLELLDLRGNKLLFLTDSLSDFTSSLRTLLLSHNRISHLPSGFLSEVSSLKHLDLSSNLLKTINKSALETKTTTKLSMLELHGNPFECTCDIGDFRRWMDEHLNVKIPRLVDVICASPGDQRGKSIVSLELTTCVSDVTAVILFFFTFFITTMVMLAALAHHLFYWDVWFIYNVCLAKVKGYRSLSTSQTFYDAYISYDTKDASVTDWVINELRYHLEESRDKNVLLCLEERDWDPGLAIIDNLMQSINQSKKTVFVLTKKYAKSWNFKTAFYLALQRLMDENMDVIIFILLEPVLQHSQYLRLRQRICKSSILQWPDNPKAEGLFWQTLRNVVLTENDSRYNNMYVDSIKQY
Nature of the assay: TLR8 inhibition reporter assay (HEK-Blue SEAP). To be noted: HEK-Blue cells overexpressing human TLR8, stimulated with R848 15.9 μM, 22 hour incubation. On the procedure: as §1, §2

The next assay deals with T3, human TLR9 (Homo sapiens, UniProt Q9NR96).
T3 construct: host or cells: HEK-Blue cells
T3 sequence (Q9NR96 26-1032): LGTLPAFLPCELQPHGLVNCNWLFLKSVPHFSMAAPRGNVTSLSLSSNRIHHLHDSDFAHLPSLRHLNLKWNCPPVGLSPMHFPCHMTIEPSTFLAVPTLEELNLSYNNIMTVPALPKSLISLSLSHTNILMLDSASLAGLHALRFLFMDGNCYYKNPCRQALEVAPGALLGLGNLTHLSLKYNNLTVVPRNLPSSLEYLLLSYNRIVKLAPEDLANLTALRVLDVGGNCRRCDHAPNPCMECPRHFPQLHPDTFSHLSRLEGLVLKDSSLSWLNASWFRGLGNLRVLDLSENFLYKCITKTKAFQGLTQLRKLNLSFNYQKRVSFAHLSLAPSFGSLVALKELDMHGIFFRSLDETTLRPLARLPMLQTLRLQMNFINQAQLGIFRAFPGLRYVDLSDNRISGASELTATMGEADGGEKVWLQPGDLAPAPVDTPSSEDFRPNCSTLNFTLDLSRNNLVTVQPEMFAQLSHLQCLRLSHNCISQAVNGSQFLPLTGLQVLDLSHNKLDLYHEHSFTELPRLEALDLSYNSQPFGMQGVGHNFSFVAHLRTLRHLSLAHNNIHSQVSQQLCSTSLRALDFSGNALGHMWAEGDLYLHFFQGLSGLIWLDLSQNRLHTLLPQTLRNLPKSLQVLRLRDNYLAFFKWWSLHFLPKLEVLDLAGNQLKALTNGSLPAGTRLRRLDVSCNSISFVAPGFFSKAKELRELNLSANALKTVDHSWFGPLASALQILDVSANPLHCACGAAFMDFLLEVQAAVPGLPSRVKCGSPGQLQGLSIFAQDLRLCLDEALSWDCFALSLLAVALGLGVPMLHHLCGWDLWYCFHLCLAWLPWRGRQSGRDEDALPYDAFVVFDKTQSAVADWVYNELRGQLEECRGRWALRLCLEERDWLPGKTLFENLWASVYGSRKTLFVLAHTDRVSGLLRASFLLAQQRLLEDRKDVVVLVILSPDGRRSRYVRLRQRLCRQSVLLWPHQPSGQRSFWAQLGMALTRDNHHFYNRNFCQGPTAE
Nature of the assay: TLR9 inhibition reporter assay (HEK-Blue SEAP). As to conditions: HEK-Blue cells overexpressing human TLR9, stimulated with ODN2006 5 nM, 22 hour incubation. As for the experimental part:
as §1, §2

As a reminder, the IC50 is the concentration at which inhibition is half-maximal. In the case of `Cc1cc2c(C3CC(N(C)C)C3)n[nH]c2cc1-c1cc(C)c2ncnn2c1` (single isomer, unassigned) [Example 6, N,N-dimethyl-3-(5-methyl-6-(8-methyl-[1,2,4]triazolo[1,5-a]pyridin-6-yl)-1H-indazol-3-yl)cyclobutan-1-amine], the IC50 on human TLR7 worked out at 9.3 nM; on human TLR8, 0.3 nM; against human TLR9, 3210 nM.
The corresponding values for `Cc1cc2c(C3CC(N(C)C)C3)n[nH]c2cc1-c1cc(C)c2ncnn2c1` (single isomer, unassigned) [Example 7, N,N-dimethyl-3-(5-methyl-6-(8-methyl-[1,2,4]triazolo[1,5-a]pyridin-6-yl)-1H-indazol-3-yl)cyclobutan-1-amine] are 21.6 nM, 1.3 nM and 4480 nM.
In the same order, the values of `Cc1cc(-c2ccc3c(C4CCC(N(C)C)CC4)c[nH]c3c2)cn2ncnc12` (single isomer, unassigned) [Example 14, N,N-dimethyl-4-(6-(8-methyl-[1,2,4]triazolo[1,5-a]pyridin-6-yl)-1H-indol-3-yl)cyclohexan-1-amine] are 80.6 nM, 115 nM and 3430 nM.
The corresponding values for `Cc1cc(-c2ccc3c(C4CCC(N(C)C)CC4)c[nH]c3c2)cn2ncnc12` (single isomer, unassigned) [Example 15, N,N-dimethyl-4-(6-(8-methyl-[1,2,4]triazolo[1,5-a]pyridin-6-yl)-1H-indol-3-yl) cyclohexan-1-amine] are 29.4 nM, 25.9 nM and 1130 nM.
On to `Cc1cc2c(C3CCC(NCC(=O)N(C)C)CC3)n[nH]c2cc1-c1cc(C)c2ncnn2c1` (single isomer, unassigned) [Example 28, N,N-dimethyl-2-((4-(5-methyl-6-(8-methyl-[1,2,4]triazolo[1,5-a]pyridin-6-yl)-1H-indazol-3-yl)cyclohexyl)amino)acetamide], for which the IC50 at human TLR7 was found to be 12.4 nM; at human TLR8 it was 0.4 nM; on human TLR9, 4410 nM.
For the compound `Cc1cc2c(C3CCC(NCC(=O)N(C)C)CC3)n[nH]c2cc1-c1cc(C)c2ncnn2c1` (single isomer, unassigned) [Example 29, N,N-dimethyl-2-((4-(5-methyl-6-(8-methyl-[1,2,4]triazolo[1,5-a]pyridin-6-yl)-1H-indazol-3-yl)cyclohexyl)amino)acetamide], the half-maximal inhibitory concentration (IC50) at human TLR7 worked out at 39 nM; at human TLR8, 0.9 nM; against human TLR9, 6340 nM.
As to `Cc1cc2c(C3CCC(N(C)C4COC4)CC3)n[nH]c2cc1-c1cc(C)c2ncnn2c1` (single isomer, unassigned) [Example 32, N-methyl-N-(4-(5-methyl-6-(8-methyl-[1,2,4]triazolo[1,5-a]pyridin-6-yl)-1H-indazol-3-yl)cyclohexyl)oxetan-3-amine], the IC50 was found to be 18.3 nM against human TLR7, 0.3 nM against human TLR8 and 4440 nM on human TLR9.
The corresponding values for `Cc1cc2c(C3CCC(N(C)C4COC4)CC3)n[nH]c2cc1-c1cc(C)c2ncnn2c1` (single isomer, unassigned) [Example 33, N-methyl-N-(4-(5-methyl-6-(8-methyl-[1,2,4]triazolo[1,5-a]pyridin-6-yl)-1H-indazol-3-yl)cyclohexyl)oxetan-3-amine] are 96.7 nM, 3 nM and 9010 nM.
With `Cc1cc2c(C3CCC(NC4COC4)CC3)n[nH]c2cc1-c1cc(C)c2ncnn2c1` (single isomer, unassigned) [Example 34, N-(4-(5-methyl-6-(8-methyl-[1,2,4]triazolo[1,5-a]pyridin-6-yl)-1H-indazol-3-yl)cyclohexyl)oxetan-3-amine], the IC50 at human TLR7 was 8.1 nM; against human TLR8, 0.2 nM; against human TLR9, 3950 nM.
On to `Cc1cc2c(C3CCC(NC4COC4)CC3)n[nH]c2cc1-c1cc(C)c2ncnn2c1` (single isomer, unassigned) [Example 35, N-(4-(5-methyl-6-(8-methyl-[1,2,4]triazolo[1,5-a]pyridin-6-yl)-1H-indazol-3-yl)cyclohexyl)oxetan-3-amine], for which the IC50 at human TLR7 turned out to be 29.7 nM; at human TLR8, 0.8 nM; against human TLR9 it was 3100 nM.
